The text below walks through data of patent EP1913949A1, “Modulation of substrate preference by selective translocation of the major cardiac glucose transporter Glut4” (priority 2006, dated 2008).

Read-outs that look alike come from different tables or passages of the source.

One data set concerns Akt/PKB. The format is cell-based, rat. The conditions noted are these: for effect on Akt/PKB phosphorylation: 20 min.
Data set [1] has as its system p38 MAPK.
In data set [2] the test system is heart-derived giant vesicles. The data set is described as follows: glucose uptake by giant vesicles (intrinsic transporter activity). Format: biochemical, rat. Conditions: for glucose uptake into giant vesicles inhibited: inhibitor 10 µM.
Data set [3] relates to ACC.
The test system of data set [4] is cardiac myocytes. The conditions noted are these: for effect on LCFA uptake: in the absence or in the presence of insulin or arsenite, SB202190 (10 µM), PD98059 (10 µM), rapamycin (100 nM).
For data set [5], the system named is cardiac myocytes.
The next data set deals with FABPpm. The format is cell-based, rat.
A further data set relates to CD36. Format: cell-based, rat.
Data set [6] relates to cardiac myocytes. The data set is described as follows: tissue or blood. The conditions noted are these: Rattus norvegicus.
Data set [7] relates to ACC. Briefly: cells. Conditions: Rattus norvegicus, 20 min, read-out: increase in phosphorylation of ACC.
The subject of data set [8] is p38 MAPK. Briefly: cells. Conditions: Rattus norvegicus, 20 min, read-out: increase in p38 MAPK phosphorylation.
Data set [9] concerns AMPK. The data set is described as follows: cells. Conditions: Rattus norvegicus, 20 min, read-out: increase in phosphorylation of AMPK.
Data set [10] has as its system heart-derived giant vesicles. The format is biochemical, rat.
The test system of data set [11] is AMPK. Conditions: 20 min.
Where [12] appears, read: SB202190, PD98059 10 µM, rapamycin 20 nM, wortmannin 200 nM, stimulus 100 nM insulin.
[13] abbreviates: SB202190, SB203580, PD98059 10 µM, rapamycin 20 nM, stimulus 100 µM arsenite.
[14] abbreviates: SB202190, PD98059 10 µM, rapamycin 20 nM, wortmannin 200 nM, stimulus 50 µM phenylephrine.
[15] abbreviates: SB202190, PD98059 10 µM, rapamycin 20 nM, wortmannin 200 nM, stimulus 100 µM arsenite.
[16] abbreviates: SB202190, PD98059 10 µM, rapamycin 20 nM, wortmannin 200 nM, stimulus 5 µM oligomycin.
[17] abbreviates: PD98059 (10 µM), rapamycin (100 nM), wortmannin (200 nM), no stimulus.
The mark [18] stands for this setting: 10 µM SB202190 added 20 min prior to 100 µM arsenite.
[19] abbreviates: read-out: basal glucose uptake inhibited.
The mark [20] stands for this setting: read-out: glucose uptake inhibited in cardiac myocytes.
Setting [21] is: read-out: glucose uptake inhibited in the presence of arsenite.
Where [22] appears, read: read-out: glucose uptake inhibited in the presence of insulin.

Turning to `COc1cccc(-c2cc(=O)c3ccccc3o2)c1N` [PD98059], the “inhibition of insulin-induced Akt/PKB phosphorylation” value in the data set on Akt/PKB (setting [12]) is listed as “did not inhibit”. Also, the “inhibition of arsenite-stimulated p38 MAPK phosphorylation” value in the data set on p38 MAPK [1] (setting [13]) is on record as “did not inhibit”. In addition, the “inhibition of phenylephrine-induced p42/44 ERK phosphorylation” value in the data set on p42/44 ERK (setting [14]) is reported as “completely inhibited”. In addition, in the data set with p70 S6K (setting [15]), the “inhibition of arsenite-induced p70 S6K phosphorylation” value was “did not inhibit”. In addition, in data set [2] (same concentrations as in cardiac myocyte studies, added 20 min prior), the “effect on glucose uptake into giant vesicles” value was “did not alter”. Also, the “inhibition of oligomycin-induced ACC phosphorylation” value in the data set with ACC [3] (setting [16]) is “did not inhibit”. The “effect on LCFA uptake” value in the data set on cardiac myocytes [4] was “neither SB202190, nor PD98059 or rapamycin were able to influence”. For the same compound, the “effect on arsenite-stimulated glucose uptake” value in the data set with cardiac myocytes [5] (PD98059 (10 µM), rapamycin (100 nM), wortmannin (200 nM), 100 µM arsenite) is on record as “neither PD98059 nor rapamycin affected glucose uptake”. Further, the “effect on insulin-stimulated glucose uptake” value in the data set on cardiac myocytes [5] (PD98059 (10 µM), rapamycin (100 nM), wortmannin (200 nM), insulin) was “neither PD98059 nor rapamycin affected glucose uptake”. Moreover, the “effect on basal glucose uptake” value with cardiac myocytes [5] (setting [17]) was “no effect”.

Consider `Oc1ccc(-c2nc(-c3ccncc3)c(-c3ccc(F)cc3)[nH]2)cc1` [SB202190], for which the “inhibition of insulin-induced Akt/PKB phosphorylation” value in the data set on Akt/PKB (setting [12]) was “did not affect”. The “inhibition of arsenite-stimulated p38 MAPK phosphorylation” value in the data set on p38 MAPK [1] (setting [13]) is “largely inhibited”. Also, the “effect on subcellular distribution of FABPpm” value in the data set with FABPpm (setting [18]) is reported as “did not influence”. For the same compound, the “inhibition of phenylephrine-induced p42/44 ERK phosphorylation” value in the data set with p42/44 ERK (setting [14]) is listed as “did not affect”. Moreover, the “inhibition of arsenite-induced p70 S6K phosphorylation” value with p70 S6K (setting [15]) is listed as “did not affect”. The “effect on subcellular distribution of CD36” value with CD36 (setting [18]) is reported as “did not influence”. Moreover, in data set [2] (added 20 min prior), the “glucose uptake into giant vesicles inhibited” value is reported as -27%. Further, in the data set on ACC [3] (setting [16]), the “inhibition of oligomycin-induced ACC phosphorylation” value is given as “did not affect”. Further, the “effect on LCFA uptake” value in the data set on cardiac myocytes [4] is “neither SB202190, nor PD98059 or rapamycin were able to influence”. In addition, the inhibition at 10 µM with cardiac myocytes [6] (setting [19]) was -45%; with cardiac myocytes [6] (setting [20]) it was -33%; in the data set on cardiac myocytes [6] (setting [21]), -42%; in the data set on cardiac myocytes [6] (setting [22]), -33%. In addition, the “effect on arsenite-induced GLUT4 translocation” value in the data set with GLUT4 (setting [18]) was “did not affect”.

Regarding `C[S+]([O-])c1ccc(-c2nc(-c3ccncc3)c(-c3ccc(F)cc3)[nH]2)cc1` (stereo not drawn) [SB203580], the “inhibition of arsenite-stimulated p38 MAPK phosphorylation” value in the data set on p38 MAPK [1] was “similarly potent in blocking”. Further, in data set [2] (added 20 min prior), the “glucose uptake into giant vesicles inhibited” value is -46%. Besides, the inhibition at 10 µM is -56% in the data set on cardiac myocytes [6] (setting [19]), -56% in the data set with cardiac myocytes [6] (setting [20]), -57% with cardiac myocytes [6] (setting [21]) and -46% with cardiac myocytes [6] (setting [22]).

Consider `CC[C@H]1/C=C/C=C/C[C@@H](C)[C@H](O)[C@@](C)(O)C(=O)[C@@H](C)[C@H](O)[C@@H](C)C(=O)[C@@H](C)[C@H](O)[C@@H](C)/C=C/C(=O)O[C@@H]2[C@H](C)[C@H](CC1)O[C@]1(CC[C@H](C)[C@H](C[C@@H](C)O)O1)[C@H]2C` [oligomycin], for which the “effect on Akt/PKB phosphorylation” value with Akt/PKB (5 µM oligomycin or 100 µM arsenite) is “did not increase”. Besides, the fold induction at 5 µM with ACC [7] is greater than 10; in the data set with p38 MAPK [8] it was 5.7 ± 1.5; with AMPK [9], greater than 10; with cardiac myocytes [6] (read-out: glucose uptake increased), 2.9. Moreover, the “effect on p42/44 ERK phosphorylation” value in the data set on p42/44 ERK (20 min, 5 µM oligomycin) was “did not increase”. Further, in the data set on p70 S6K (oligomycin), the “effect on p70 S6K phosphorylation” value is listed as “did not enhance”.

As for `CO[C@H]1C[C@@H]2CC[C@@H](C)[C@@](O)(O2)C(=O)C(=O)N2CCCC[C@H]2C(=O)O[C@H]([C@H](C)C[C@@H]2CC[C@@H](O)[C@H](OC)C2)CC(=O)[C@H](C)/C=C(\C)[C@@H](O)[C@@H](OC)C(=O)[C@H](C)C[C@H](C)/C=C/C=C/C=C/1C` [rapamycin], the “effect on basal glucose uptake” value with cardiac myocytes [5] (setting [17]) was “no effect”.

As for `COC[C@H]1OC(=O)c2coc3c2[C@@]1(C)C1=C(C3=O)[C@@H]2CCC(=O)[C@@]2(C)C[C@H]1OC(C)=O` [wortmannin], the “inhibition of insulin-induced Akt/PKB phosphorylation” value in the data set with Akt/PKB was “completely blocked”. The “inhibition of phenylephrine-induced p42/44 ERK phosphorylation” value in the data set with p42/44 ERK was “unaltered”. The “inhibition of arsenite-induced p70 S6K phosphorylation” value in the data set with p70 S6K was “completely blocked”. Further, the “effect on glucose uptake into giant vesicles” value in [2] is recorded as “did not alter”. Besides, in the data set with ACC [3], the “inhibition of oligomycin-induced ACC phosphorylation” value is “unaltered”. In the data set with cardiac myocytes [4], the “effect on basal LCFA uptake” value is “no effect” and the “effect on insulin-induced LCFA uptake” value is on record as “completely blocked”. Besides, in the data set with cardiac myocytes [5], the “effect on arsenite-stimulated glucose uptake” value is listed as “completely failed to inhibit”, the “effect on basal glucose uptake” value is on record as “did not inhibit” and the “effect on insulin-stimulated glucose uptake” value was “largely blocked”.

With sodium arsenite, in [10], the “effect on LCFA uptake into giant vesicles” value was “did not influence”. For the same compound, the “effect on Akt/PKB phosphorylation” value with Akt/PKB is given as “did not stimulate”. Also, the “increase in p38 MAPK phosphorylation” value with p38 MAPK [1] (20 min) came out at 7.8 ± 1.8 fold. The “distribution of FABPpm between the LDM and the PM fraction” value with FABPpm (20 min) is on record as “did not significantly influence”. In addition, the “increase in p42/44 ERK phosphorylation” value in the data set on p42/44 ERK (20 min, 100 µM) stood at 2.3 ± 0.5 fold. In the data set with p70 S6K (20 min, 100 µM), the “increase in p70 S6K phosphorylation” value stood at 3.3 ± 0.7 fold. Also, the “contents of CD36 in the LDM- and PM fractions” value with CD36 (20 min) is listed as “did not significantly influence”. Also, in data set [2], the “effect on glucose uptake into giant vesicles” value is listed as “did not influence”. In addition, the “effect on phosphorylation of ACC” value in the data set on ACC [3] (20 min) is recorded as “remained unaltered”. In addition, in the data set with cardiac myocytes [4], the LCFA uptake result is reported as “did not increase” and the “effect of arsenite on LCFA uptake in combination with insulin or oligomycin” value is on record as “did not significantly alter”. Further, the “effect on phosphorylation of AMPK” value in the data set with AMPK [11] is reported as “remained unaltered”. Further, in the data set on cardiac myocytes [5], the deoxyglucose uptake entry is listed as “without a further increase”, the “effect of arsenite on glucose uptake in combination with oligomycin” value was “retained its stimulatory action” and the “effect of arsenite on glucose uptake in insulin-stimulated cardiac myocytes” value is reported as “ineffective”. This compound also yielded a deoxyglucose uptake stimulated in the data set on cardiac myocytes [5] (cardiac myocytes, 20 min, 100 µM) of 5.1 fold. Moreover, the “content of GLUT4 in the LDM fraction decreased” value in the data set on GLUT4 (20 min) is reported as 44%. In addition, the “content of GLUT4 in the PM fraction increased” value with GLUT4 (20 min, 100 µM) is 1.7 fold.
